In patent US20120157396A1, “PYRAZINAMIDE FOR IMMUNOSTIMULATION AND THE TREATMENT OF LEISHMANIASES” (priority 2009, published 2012):
Like-named read-outs stand apart in the source and are kept apart here.

How the values were obtained:
Leishmania = assay: J774 cells infected with old- and new-world Leishmania species, 48 hr post treatment; assay type: cell-based
Text: FIG. 8. Effect of PZA on J774 cells infected with Leishmania 48 hr post treatment. Data expressed as % survival compared to untreated control (100% survival). Mean±SD of 3 independent determinations.
FIG. 9. A. Effect of 5-Chloro PZA on J774 cells infected with Leishmania, 48 hr post treatment. Data expressed as % survival compared to untreated control (100% survival). Mean±SD of 3 independent determinations. […] B. Cytokine IL-2 production—5-Chloro PZA stimulated 2× more proinflammatory cytokines than PZA, even in Leishmania-infected macrophages (similar results with IFNγ, TNFα, NO).

[1] = test system: bone marrow-derived macrophages; assay: Cytokine and NO production in bone marrow-derived macrophages; assay type: cell-based, C57BL/6 mice; parameters: unit not given here; details: macrophage, drug 100 μM
L. major amastigotes = L. major amastigotes within J774 cells, parasite survival; assay type: cell-based; details: for MIC50: Leishmania major
Procedure: To distinguish between leishmaniostatic and leishmanicidal effects, a time course survival curve was generated for J774 cultures infected with L. major.
Amastigotes were generated by infecting J774 murine macrophages. Infections were carried after seeding cells in 8-well Labtek chambers (Thermo Physic Scientific, Rochester N.Y.) at a concentration of 5×10^4 cells/well. To avoid multiplication, cells were incubated with mitomycin C at a concentration of 0.8 μg/ml for 16 h. Infective-stage promastigotes (metacyclics) of L. major were isolated from stationary cultures (4-5 day-old) by Ficoll enrichment, added to macrophage cultures (5 promastigotes: 1 cell) and kept overnight at 37° C. in the presence of 5% CO2 and DMEM with 10% FCS. Sixteen hours later, non-internalized promastigotes were then washed and replaced by culture medium containing the drug. Forty-eight hours later, wells were detached from the slides, stained with Diff-Quick (Dade Behring, Newark, Del.) and counted under light microscope. Parasite burden was determined by observation under light microscopy (1000×) as the number of amastigotes per one hundred J774 cells. Percentage of survival of amastigotes and MIC50 were calculated as above.

J774 cells = assay: Cytokine (ELISA) and nitric oxide (Griess test) production in J774 cells; assay type: cell-based, murine; details: for production of cytokines (IL-12, TNF-α) and NO release: J774 cells, irrespective of infection (FIG. 14)
Procedure: The ability of J774 cells to produce cytokines in response to infection and/or treatment was also determined. Cells were infected, treated or activated as described above. The amount of the proinflammatory cytokines IL-12 and TNF-α (implicated in Thl response and parasite killing), as well as the repressive cytokine IL-10, was determined by ELISA in the culture supernatants. The level of nitric oxide was also determined in the same supernatants. PZA treatment alone increased cytokine production, especially IL-12 and TNF-α and NO release. […] Finally, to test the specificity of the immune activation by PZA, we determined the effect that amphotericin B treatment had on activation and cytokine expression by J774 cells.
J774 cells or bone marrow-derived cells were seeded onto 24-well plates at a concentration of 5×10^5 cells/ml. Twenty-four hours later, PZA was added to the wells at different concentrations in the absence or presence of L. major (1:5 parasite ratio). In some experiments, J774 cells were treated with amphotericin B (0.1, 0.5, or 1 μg/ml). Two control groups were also included in this experiment: a positive control of activation consisting in a group of uninfected cells treated with 100 ng/ml LPS and 10 IU IFN-γ as a positive control of activation, and a negative control of activation, consisting in uninfected, untreated cells. Cell cultures were maintained overnight, and then cultured for an additional 6 h with brefeldin A (10 μg/ml), harvested by scraping and fixed in 2% paraformaldehyde. Prior to staining, cells were incubated with an anti-Fc III/II receptor and 10% normal mouse serum (NMS) in PBS containing 0.1% BSA, 0.01% NaN3. Cells were permeabilized with saponin and stained for the surface markers CD80 (clone 16-10A1), CD86 (clone GL1), MHCI (clone 28-14-8), MHCII (clone M5/114.15.2) and for the cytokines IL-12p40/p70 (clone C17.8) and IL-10 (clone JESS-16E3). Incubations were carried out for 30 min on ice. All antibodies were purchased from BD Biosciences or eBioscience. For each sample, at least 50,000 cells were analyzed. The data were collected and analyzed using CELLQuest software and a FACScalibur flow cytometer (Becton Dickinson, San Jose, Calif.).

[2] = test system: bone marrow-derived dendritic cells; assay: Cytokine and NO production in bone marrow-derived dendritic cells; assay type: cell-based, C57BL/6 mice; parameters: unit not given here; details: dendritic cell, drug 100 μM
[3] = test system: dendritic cells lacking TLR-2 and -4; assay: Activation of bone marrow-derived dendritic cells from TLR-2/-4 double knock out mice; assay type: cell-based
Procedure: FIG. 11. A. The immunostimulatory effect of PZA is independent of TLR engagement. Mean fluorescence values for the expression of CD80, CD86, MHC Class I and MHC Class II and B. IL-12, IL-10 and iNOS expression determined by flow cytometry in bone marrow-derived dendritic cells from TLR-2/-4 double knock out mice, infected or not with L. major, and treated with 10 and 100 μM PZA. Uninfected cells were treated with 10 U IFN-γ/100 ng/ml LPS as a positive control of activation. Unstimulated, untreated cells are also shown. Data are expressed as mean±standard deviation of n=3 determinations. *: Statistically significant P≦0.03; **: Statistically significant P≦0.005; ***: Statistically significant, P≦0.0001 when compared to the group infected with L. major and untreated.
In this experiment, we treated the dendritic cells as described above, in the presence or absence of L. major infection. Again as a positive control, cells were primed with IFN-γ and LPS. […] In the same way, the expression of IL-12, IL-10 and iNOS was increased in treated cells, irrespective of infection (FIG. 11B).

[4] = L. major-infected J774, PZA 10 μM
[5] = L. major-infected J774, PZA 100 μM

NC(=O)c1cnc(Cl)cn1 [5-Cl PZA, 5-chloro pyrazinamide]
activity at killing leishmanial species relative to PZA (Leishmania; old- and new-world leishmanial species in J774 cells): 10 fold
MIC (Leishmania; variety of old- and new-world leishmanial species in J774 cells, 48 hr): 1 to 13 µM
NO production ([1]; infected with L. major (Lm)): 1599 ± 812
TNF-α production ([1]; infected with L. major (Lm)): 1928 ± 444
NO production ([1]; uninfected): 1145 ± 721
TNF-α production ([1]; uninfected): 1598 ± 542
MIC50 reduced relative to PZA (L. major amastigotes; L. major amastigotes within J774 cells): 5 fold
MIC50 for PZA analogs (L. major amastigotes; L. major amastigotes within J774 cells (Table Ia)): 2.1 μM
proinflammatory cytokines stimulated relative to PZA (J774 cells; IL-2 production (FIG. 9B), also in Leishmania-infected macrophages): 2 ×
production of cytokines (IL-12, TNF-α) and NO release (J774 cells): increased
NO production ([2]; infected with L. major (Lm)): 876 ± 172
TNF-α production ([2]; infected with L. major (Lm)): 2986 ± 566
NO production ([2]; uninfected): 745 ± 211
TNF-α production ([2]; uninfected): 17684 ± 678

NC(=O)c1cnccn1 [PZA, pyrazinamide]
killing of Leishmania species (Leishmania; J774 cells infected with Leishmania, 48 hr post treatment (FIG. 8)): killed old-world and new-world VL leishmanial species
expression of activation markers and MHC Class molecules ([3]; 10 and 100 μM PZA, dose-dependent, TLR-2/-4 double knock out dendritic cells): increased expression of activation markers and MHC Class molecules
expression of IL-12, IL-10 and iNOS ([3]; PZA-treated cells, irrespective of infection): increased
NO production ([1]; infected with L. major (Lm)): 699 ± 112
TNF-α production ([1]; infected with L. major (Lm)): 921 ± 345
NO production ([1]; uninfected): 543 ± 221
TNF-α production ([1]; uninfected): 758 ± 246
increase in MIC50 of amastigotes versus promastigotes (L. major amastigotes; 48 hours post infection): 10 fold
MIC50 (L. major amastigotes; 48 h, amastigote in J774, 48 h, read-out: MIC50): 10.2 µg/mL
MIC50 (L. major amastigotes; L. major amastigotes within J774 cells (Table Ia), read-out: MIC50 for PZA analogs): 9.5 µM
percentage of survival compared to untreated control (L. major amastigotes; amastigote in J774, PZA 1 μg/ml, 48 h): 89 ± 12%
percentage of survival compared to untreated control (L. major amastigotes; amastigote in J774, PZA 12.5 μg/ml, 48 h): 47 ± 12%
percentage of survival compared to untreated control (L. major amastigotes; amastigote in J774, PZA 100 μg/ml, 48 h): 23 ± 10%
percentage of survival compared to untreated control (L. major amastigotes; amastigote in J774, PZA 1000 μg/ml, 48 h): 20 ± 15%
production of cytokines (IL-12, TNF-α) and NO release (J774 cells): increased
IL-10 production (J774 cells; [4]): 109 ± 39 pg/mL
IL-12 production (J774 cells; [4]): 253 ± 68 pg/mL
Nitric Oxide production (J774 cells; [4]): 289 ± 55 pg/mL
TNF-α production (J774 cells; [4]): 259 ± 163 pg/mL
IL-10 production (J774 cells; [5]): 112 ± 44 pg/mL
IL-12 production (J774 cells; [5]): 299 ± 55 pg/mL
Nitric Oxide production (J774 cells; [5]): 498 ± 74 pg/mL
TNF-α production (J774 cells; [5]): 489 ± 154 pg/mL
IL-10 production (J774 cells; uninfected J774, PZA 10 μM): 112 ± 45 pg/mL
IL-12 production (J774 cells; uninfected J774, PZA 10 μM): 178 ± 38 pg/mL
Nitric Oxide production (J774 cells; uninfected J774, PZA 10 μM): 254 ± 44 pg/mL
TNF-α production (J774 cells; uninfected J774, PZA 10 μM): 245 ± 159 pg/mL
IL-10 production (J774 cells; uninfected J774, PZA 100 μM): 145 ± 56 pg/mL
IL-12 production (J774 cells; uninfected J774, PZA 100 μM): 359 ± 65 pg/mL
Nitric Oxide production (J774 cells; uninfected J774, PZA 100 μM): 476 ± 52 pg/mL
TNF-α production (J774 cells; uninfected J774, PZA 100 μM): 377 ± 105 pg/mL
NO production ([2]; infected with L. major (Lm)): 699 ± 612
TNF-α production ([2]; infected with L. major (Lm)): 1856 ± 125
NO production ([2]; uninfected): 545 ± 221
TNF-α production ([2]; uninfected): 1654 ± 546
